According to patent US20100292185A1, “BETA-LACTAMASE INHIBITORS” (priority 2009, published 2010):
Structures can show the parent of a compound that is named as a salt.

Experiments:
SHV-5 β-lactamase = target: T1, SHV-5 β-lactamase (Klebsiella pneumoniae, UniProt P0A3M1); assay: β-lactamase enzyme inhibition assay (nitrocefin substrate), SHV-5; type: biochemical
T1 construct: expressed as native untagged proteins; made in house; host or cells: E. coli BL21(DE3)
Protocol: (§1) Isolation of β-lactamases. For SHV-5, p99 AmpC, KPC-2 and CTX-M15 β-lactamases, E. coli BL21(DE3) bacterial cells carrying expression plasmids (expressed as native untagged proteins) for the individual β-lactamases were grown in 1 L of Superbroth (Teknova Inc. Hollister, Calif.) supplemented with 100 μg/ml kanamycin and 1×5052 (0.5% glycerol, 0.05% glucose and 0.2% α-lactose) at 35° C. for 18-20 hours. Cells were harvested by centrifugation (4,000×g, 4° C., 20 min), and resuspended in 50 ml of 10 mM HEPES pH 7.5 (1/20 of the initial volume). The cells were lysed by sonication (5 pulses of 45 seconds) at 45 W on ice. The lysates were clarified by centrifugation at 10,000×g for 40 minutes at 4° C. Samples were diluted 5-fold in 50 mM sodium acetate pH 5.0, stored overnight at 4° C., after which they were centrifuged at 10,000×g for 30 minutes to clarify, and filtered through 0.45 μm filters. The samples were loaded onto a 5 ml Capto S sepharose cation exchange column (GE Healthcare) pre-equilibrated with 50 mM sodium acetate pH 5.0. The column was washed with 5 column volumes of 50 mM sodium acetate pH 5.0 to wash out unbound protein and a linear gradient of NaCl (0 to 500 mM) was used to elute the protein (over 16 CV) from the column. Fractions were assayed for β-lactamase activity using Centa (Calbiochem, Gibbstown, N.J.) as a reporter β-lactamase substrate for activity in the isolated fractions. Active fractions were pooled, concentrated and further purified by gel filtration chromatography on a Superdex 75 prep grade gel filtration column (GE Healthcare, Piscataway, N.J.) pre-equilibrated in 50 mM Hepes pH 7.5, 150 mM NaCl. Active fractions were pooled concentrated, quantitated by BCA protein determination (Thermo Scientific, Rockford, Ill.), and frozen at −80° C. in 20% glycerol until use.
(§2) β-lactamase Inhibition. To determine the level of inhibition of β-lactamase enzymes, compounds were diluted in PBS at pH 7.0 to yield concentrations between 100 and 0.005 μM in microtiter plates. An equal volume of diluted enzyme stock was added, and the plates were incubated at 37° C. for 10 min. Nitrocefin solution was then dispensed as substrate into each well at a final concentration of 100 μM, and the plates were immediately read with the kinetic program at 486 nm for 10 min on the SPECTRAMAX® Plus^384 (high-throughput microplate spectrophotometer; Molecular Devices Corp., Sunnyvale, Calif.). Maximum rates of metabolism were then compared to those in control wells (without inhibitors), and percentages of enzyme inhibition were calculated for each concentration of inhibitor. The concentration of inhibitor needed to reduce the initial rate of hydrolysis of substrate by 50% (IC50) was calculated as the residual activity of β-lactamase at 486 nm using the SoftMax Pro 5.0 software (Molecular Devices Corp.).
(§3) Using the methodology described above, examples of the current invention were evaluated for their ability to inhibit β-lactamase enzymes. The results of these assays are summarized in Table 2 for representative enzymes across different subtypes (note SHV-5 and CTXM-15 exemplify different subclasses of Ambler Class A Extended Spectrum Beta Lactamases, KPC-2 exemplifies Class A carbapenemases, P99 represents chromosomal Class C AmpC, VIM-2 exemplifies subclass B1 of metallo-β-lactamases, and OXA-23 represents chromosome-encoded Class D oxacillin-hydrolyzing β-lactamases), NT=not tested.

CTX-M15 β-lactamase = target: T2, CTX-M15 β-lactamase (Escherichia coli, UniProt Q9EXV5); assay: β-lactamase enzyme inhibition assay (nitrocefin substrate), CTXM-15; type: biochemical
T2 construct: expressed as native untagged proteins; made in house; host or cells: E. coli BL21(DE3)
Protocol: as §1, §2, §3

[1] = test system: K. pneumoniae expressing the Class A Extended Spectrum Beta-Lactamase (ESBL) CTX-M-15; assay: In vitro antibacterial assay of β-lactamase inhibition (broth microdilution MIC), K. pneumoniae CTX-M-15; type: cell-based
Text: (§4) To determine the ability of test compounds to potentiate the inhibition of the growth of bacterial strains producing beta-lactamase enzymes, classic cell based screening assays were employed. Five bacteria strains producing beta-lactamase enzymes were used: K. pneumoniae expressing the Class A Extended Spectrum Beta-Lactamase (ESBL) CTX-M-15, E. coli expressing the Class A ESBL SHV-5, E. cloacae expressing the Class C P99+, K. pneumoniae expressing the Class A carbapenemase KPC-2, and P. aeruginosa expressing the Class B metallo β-lactamase VIM-2. In order to evaluate the ability of test compounds to inhibit beta-lactamase activity, Applicants used a modification of the broth microdilution assay. The assay was conducted in Cation Adjusted Mueller Hinton Broth (CAMHB, BD # 212322, BD Diagnostic Systems, Sparks, Md.). Bacteria strains were grown for 3-5 hours in CAMBH broth. All five strains were grown in presence of 50 μg/mL ampicillin to ensure resistance is maintained. In the meantime, test compounds were diluted in DMSO to a 0.1 mg/mL stock. The compounds were added to a microtiter plate and were diluted in 2-fold serial dilutions in CAMHB in a final concentration range of 8 μg/mL to 0.015 μg/ml. […] Each of these compound plates are made in quadruplicate, one for each bacteria strain. In addition to the titration of test compounds the MICs of a panel of cephalosporins is also tested to ensure the strains are behaving consistently from test to test. Once the test compound and cephalosporin are added the plates can be inoculated. Inocula are conducted according to CLSI broth microdilution method. After inoculation the plates are incubated for 16-20 hours at 37° C. then the Minimal Inhibitory Concentration (MIC) of the test compound is determined visually.
(§5) Using the methodology described above, examples of the current invention were evaluated for their ability to inhibit the growth of β-lactamase producing bacteria in the presence of a β-lactam antibiotic.

[2] = test system: E. coli expressing the Class A ESBL SHV-5; assay: In vitro antibacterial assay of β-lactamase inhibition (broth microdilution MIC), E. coli SHV-5; type: cell-based
Text: as §4, §5

KPC-2 β-lactamase = target: T3, KPC-2 β-lactamase (Klebsiella pneumoniae, UniProt Q9F663); assay: β-lactamase enzyme inhibition assay (nitrocefin substrate), KPC-2; type: biochemical
T3 construct: expressed as native untagged proteins; made in house; host or cells: E. coli BL21(DE3)
Protocol: as §1, §2, §3

[3] = test system: E. cloacae expressing the Class C P99+; assay: In vitro antibacterial assay of β-lactamase inhibition (broth microdilution MIC), E. cloacae P99+; type: cell-based
Text: as §4, §5

[4] = test system: K. pneumoniae expressing the Class A carbapenemase KPC-2; assay: microbe, parasite or virus in culture; type: cell-based
Text: as §4, §5

[5] = test system: P. aeruginosa expressing the Class B metallo β-lactamase VIM-2; assay: In vitro antibacterial assay of β-lactamase inhibition (broth microdilution MIC), P. aeruginosa VIM-2; type: cell-based; details: in presence of Ceftazidime 16 μg/mL (Examples 1-56)
Text: as §4, §5

p99 AmpC β-lactamase = target: T4, p99 AmpC β-lactamase (Enterobacter cloacae, UniProt P05364); assay: β-lactamase enzyme inhibition assay (nitrocefin substrate), P99 AmpC; type: biochemical; details: nitrocefin 100 μM, 37° C., PBS pH 7.0; read-out: P99 AmpC IC50
T4 construct: expressed as native untagged proteins; made in house; host or cells: E. coli BL21(DE3)
Protocol: as §1, §2, §3

[6] = in presence of Ceftazidime 8 μg/ml (Examples 1-56)
[7] = in presence of Piperacillin 16 μg/ml (Examples 57-65)

T3 sequence (Q9F663 25-293 limits assumed): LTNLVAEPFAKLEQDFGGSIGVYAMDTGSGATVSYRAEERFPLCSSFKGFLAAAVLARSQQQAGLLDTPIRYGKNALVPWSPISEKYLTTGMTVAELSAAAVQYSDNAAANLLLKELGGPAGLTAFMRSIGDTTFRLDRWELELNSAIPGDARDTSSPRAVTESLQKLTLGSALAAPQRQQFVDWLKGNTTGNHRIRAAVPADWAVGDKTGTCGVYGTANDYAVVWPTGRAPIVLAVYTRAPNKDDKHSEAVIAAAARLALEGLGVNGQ
T1 sequence (P0A3M1 22-286): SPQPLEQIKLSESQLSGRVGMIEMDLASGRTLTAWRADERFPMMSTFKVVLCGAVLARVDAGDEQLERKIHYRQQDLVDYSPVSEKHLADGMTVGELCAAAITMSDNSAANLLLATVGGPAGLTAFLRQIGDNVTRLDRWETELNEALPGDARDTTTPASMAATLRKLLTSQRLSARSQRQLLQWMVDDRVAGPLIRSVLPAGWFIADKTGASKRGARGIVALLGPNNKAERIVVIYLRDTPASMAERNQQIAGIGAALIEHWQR
T4 sequence (P05364 21-381): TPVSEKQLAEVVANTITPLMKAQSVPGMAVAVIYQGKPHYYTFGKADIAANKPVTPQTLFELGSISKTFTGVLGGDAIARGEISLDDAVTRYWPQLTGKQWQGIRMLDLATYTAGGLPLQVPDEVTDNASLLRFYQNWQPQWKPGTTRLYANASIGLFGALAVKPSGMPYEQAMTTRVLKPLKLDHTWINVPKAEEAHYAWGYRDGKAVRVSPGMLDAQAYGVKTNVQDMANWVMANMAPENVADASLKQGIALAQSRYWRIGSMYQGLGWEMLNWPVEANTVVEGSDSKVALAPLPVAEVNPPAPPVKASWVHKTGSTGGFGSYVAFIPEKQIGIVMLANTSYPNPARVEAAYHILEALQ
T2 sequence (Q9EXV5 entry or part of it): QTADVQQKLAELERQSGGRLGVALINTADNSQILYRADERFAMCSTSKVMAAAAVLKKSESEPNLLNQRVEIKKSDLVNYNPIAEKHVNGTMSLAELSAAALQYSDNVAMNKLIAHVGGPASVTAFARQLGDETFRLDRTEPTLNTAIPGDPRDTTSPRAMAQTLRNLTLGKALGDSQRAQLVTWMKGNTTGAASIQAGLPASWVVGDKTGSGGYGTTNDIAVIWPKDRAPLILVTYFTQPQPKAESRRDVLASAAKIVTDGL

Row | SMILES | IC50 (SHV-5 β-lactamase) [nM] | IC50 (CTX-M15 β-lactamase) [nM] | MIC of example compound, K. pneumoniae CTX-M-15 [1, 6] [µg/mL] | MIC of example compound, E. coli SHV-5 [2, 6] [µg/mL] | IC50 (KPC-2 β-lactamase) [nM] | MIC of example compound, E. cloacae P99+ [3, 6] [µg/mL] | MIC of example compound, K. pneumoniae KPC-2 [4, 6] [µg/mL] | MIC of example compound, P. aeruginosa VIM-2 [5] [µg/mL] | IC50 (p99 AmpC β-lactamase) [nM] | MIC of example compound, K. pneumoniae CTX-M-15 [1, 7] [µg/mL] | MIC of example compound, E. coli SHV-5 [2, 7] [µg/mL] | MIC of example compound, E. cloacae P99+ [3, 7] [µg/mL] | MIC of example compound, K. pneumoniae KPC-2 [4, 7] [µg/mL]
1 | CN(C)Cc1cccc(C(=O)N[C@@H](Cc2cccc(C(=O)O)c2O)B(O)O)c1 [Example 27, (1R)-(3-dimethylaminomethyl-benzoylamino)-(3-carboxy-2-hydroxy)benzyl-methylboronic acid formate] | 312 | 3 | 1 | >8 | 14 | 0.5 | 0.03 | >8 | 1.4 |  |  |  | 
2 | CC(=O)N(CCN)Cc1cccc(C(=O)N[C@@H](Cc2cccc(C(=O)O)c2O)B(O)O)c1 [Example 24, (1R)-(3-{[acetyl-(2-amino-ethyl)-amino]-methyl}-benzoylamino)-(3-carboxy-2-hydroxy)benzyl-methylboronic acid formate] | 350 | 4 | 1 | 8 | 18 | 1 | 0.12 | >8 | 2 |  |  |  | 
3 | O=C(Cc1ccc(CNC(CO)C(=O)O)cc1)N[C@@H](Cc1cccc(C(=O)O)c1O)B(O)O (stereo partly drawn) [Example 60, (1R)-1-(2-{4-[(1-Carboxy-2-hydroxy-ethylamino)-methyl]-phenyl}-acetylamino)-1-[(3-carboxy-2-hydroxy)benzyl]-methylboronic acid formate] | 2 |  |  |  | 11 |  |  |  | 9 | >16 | 1 | 2 | 0.5
4 | Cl.O=C(N[C@@H](Cc1cccc(C(=O)O)c1O)B(O)O)c1ccc(CNCc2cccnc2)cc1 [Example 17, (1R)-[4-(pyridin-3-ylmethylaminomethyl]-benzoylamino-(3-carboxy-2-hydroxy)benzyl-methylboronic acid hydrochloride] | > 1000 | 5 |  |  | 15 |  |  |  | 8 |  |  |  | 
5 | N=C(N)NCc1cccc(CC(=O)N[C@@H](Cc2cccc(C(=O)O)c2O)B(O)O)c1 [Example 65, (1R)-1-{2-[3-(1-guanidinomethyl)-phenyl]-acetylamino}-1-[(3-carboxy-2-hydroxy)benzyl]-methylboronic acid formate salt] |  |  |  |  |  |  |  |  |  | >16 | 0.25 | 0.25 | 0.5
